Assay results from PubChem BioAssay AID463074 (Broad Institute, 2010).
Calls of active or inactive are those of the source.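 The calls were made as follows: active = AC50 no more than tenfold above the top dose tested, or full inhibition at every dose with a flat fit (cut at about 19 µM in these data); inconclusive = flat curve fit with inhibition between 30% and 70%, or poor fit; inactive = AC50 more than tenfold above the top dose tested.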

Test system: HMLE_sh_eGFP viability, CellTiter-Glo luminescence, 72 h
Experiment: viability loss of HMLE_sh_eGFP cells – cell-based, luminescence, counter-screen for HMLE_sh_ECad selective toxicity project, dose response (AID 463074);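 also: counterscreen control line to flag general toxicity for the HMLE_sh_ECad screen; potency for loss of viability as luminescence drops below DMSO wells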

Structure (SMILES) | AC50
Cc1ccc(-c2nnc(Sc3nc4ccccc4o3)c3ccccc23)cc1 | 6.74 µM
Cc1nc2c(sc3nc(N4CCOCC4)c4c(c32)CC(C)(C)OC4)c(-c2ccccc2)c1C(=O)O | 1.98 µM
Cc1ccc([N+](=O)[O-])cc1N(CC(=O)Nc1ccc(S(=O)(=O)Nc2cccc(C(F)(F)F)c2)cc1)S(C)(=O)=O | 4.67 µM
O=C(Nc1nccs1)c1ccc(COc2ccccc2Cl)o1 | 10.8 µM
O=C(Nc1ccc(NC(=S)NC(=O)c2ccccc2Cl)cc1)c1cccc(Cl)c1 | 17.8 µM
c1ccc(CN2CCN(c3nc(NCc4ccco4)c4ccccc4n3)CC2)cc1 | 4.22 µM
Cc1ccc(C(C)C)c(OCc2nn(CC(=O)c3ccc(OC(F)F)cc3)c3[n+]2CCCCC3)c1 | 4.17 µM
C=CCn1c(SCc2c(C)noc2C)nc2sc3c(c2c1=O)CCCCC3 | 1.42 µM
CC1=CC(=O)C(C(C)C)=C/C1=C(\c1cc(C(C)C)c(OP(=O)(O)O)cc1C)c1ccccc1C(=O)O | 3.6 µM
Nc1nc(Cl)nc2c1ncn2[C@H]1C[C@H](O)[C@@H](CO)O1 | 0.318 µM
CCCCCc1cc(=O)oc2c(C(CCN(CC)CC)c3cc(OC)c(OC)c(OC)c3)c(OC)cc(OC)c12 (stereo not drawn) | 14.3 µM
O=C(COC(=O)c1c2c(nc3ccccc13)/C(=C\c1cccs1)CCC2)Nc1ccccc1 | 2.77 µM
CCCOC(=O)c1ccc(Oc2c(-c3ccc(OCC)cc3O)n[nH]c2C)cc1 | 4.06 µM
N#CC1(NC(=O)COC(=O)c2cc(O)c3ccccc3c2O)CCCCC1 | 9.15 µM
O=C(NC(NC(=S)Nc1cccc(Cl)c1)C(Cl)(Cl)Cl)OCc1ccccc1 (stereo not drawn) | 3.93 µM
C[C@H](CO)N1C[C@H](C)[C@@H](CN(C)S(=O)(=O)c2ccc(F)cc2)Oc2ccc(NC(=O)Nc3ccc(C(F)(F)F)cc3)cc2C1=O | 17.1 µM
COc1cccc(Nc2nc(-c3cccs3)nc3ccccc23)c1 | 7.32 µM
O=c1[nH]c(CN2CC=C(c3ccccc3)CC2)nc2scc(-c3ccccc3)c12 | 5.19 µM
O=C(COCC(=O)Nc1cccc(C(F)(F)F)c1)Nc1cccc(C(F)(F)F)c1 | 7.59 µM
O=C(NC(=S)Nc1ccc(N2CCCCC2)c(Cl)c1)c1ccc2c(c1)OCCO2 | 3.58 µM
CCN1C(=O)C(=Cc2cccc(OC)c2Oc2ccc([N+](=O)[O-])cc2[N+](=O)[O-])SC1=S | 2.27 µM
Oc1ccc(Br)cc1/C=N/NC(=S)NCCc1ccccc1 | 4.19 µM
COc1ccc(C(=O)NC(=S)Nc2ccccc2N2CCCCC2)cc1[N+](=O)[O-] | 0.574 µM
O=c1[nH]c2ccccc2n1C1CCN(CCCC(c2ccc(F)cc2)c2ccc(F)cc2)CC1 | 6.27 µM
CCCCOc1ccc(C(=O)C(CN2CCOCC2)c2ccccc2)cc1 (stereo not drawn) | 6.76 µM
CCCCCCc1cc2cc(-c3nnc(-c4cc(OC)c(OC)c(OC)c4)o3)c(=O)oc2cc1O | 5.89 µM

Structure (SMILES) | AC50
C/C(=N\NC(=O)c1cc(C)nc2ccccc12)c1ccccn1 | 13.1 µM
CC(OC(=O)c1cccs1)C(=O)NC1CCCCC1C (stereo not drawn) | > 19.5 µM (inactive)
CC12CCC3C(CC=C4CC(O)CCC43C)C1C/C(=C\c1ccccc1F)C2=O (stereo not drawn) | 4.04 µM
CCC(CO)Oc1cc(NCc2ccc(Cl)cc2Cl)c2ncn(C(C)C)c2c1 (stereo not drawn) | 7.64 µM
Clc1ccc(Nc2ncnc3ccc(Br)cc23)cc1 | 17.5 µM
Oc1ccc(Nc2nc(-c3ccccc3O)nc3ccccc23)cc1 | 4.27 µM
CCN1C(=O)C(CC(=O)Nc2ccc(F)cc2)N(CCCN2CCN(c3ccc(F)cc3)CC2)C1=S (stereo not drawn) | 6.83 µM
COc1ccc(NS(=O)(=O)c2ccc(O)c(NC(=O)c3cc4c(C)nn(-c5ccc(F)cc5)c4s3)c2)cc1 | 2.49 µM
Cn1nnnc1Sc1ncnc2scc(Br)c12 | 6.78 µM
COc1ccc(C(=O)c2ccc(OC)cc2OC)cc1 | 5.49 µM
COc1ccc(-c2nc3cnccn3c2NC2CCCCC2)cc1-c1cccc(Cl)c1 | 6.62 µM
O=C(COc1ccccc1-c1ccccc1)N/N=C/c1ccc2ccccc2c1 | 3.67 µM
CCN1CCN(CCCNC(=O)c2ccc(/C=C3/Sc4ccccc4N(Cc4ccccc4F)C3=O)cc2)CC1 | 3.14 µM
O=C(Nc1nc2ccccc2s1)C1CCN(S(=O)(=O)c2cc([N+](=O)[O-])ccc2Cl)CC1 | 19 µM
O=C/C=C/c1c(-c2ccccc2)cc2oc3ccccc3cc1-2 | 9.18 µM
Clc1cc2cccnc2c2ncccc12 | 3.56 µM
C/C(=N\Nc1ccccc1)c1c(O)n(-c2ccccc2)c(=O)[nH]c1=O | 2.45 µM
N#CC1=C(SCC(=O)c2ccc(Cl)cc2)NC2=C(C(=O)CCC2)C1c1ccco1 (stereo not drawn) | 3.57 µM
CC1=C(C(=O)OC2CCCC2)C(c2coc3ccccc3c2=O)C2=C(CC(C)(C)CC2=O)N1 (stereo not drawn) | > 19.5 µM (inactive)
CC/C(=N\Nc1ccccc1)c1c(O)n(-c2ccc(OC)cc2)c(=O)[nH]c1=O | 2.13 µM
COc1c(Cl)cc(Cl)cc1/C=C/C(=O)c1ccc(NC(=O)c2cccs2)cc1 | 1.31 µM
CCCOc1ccc(-c2nc(N3CCN(CC)CC3)c3ccccc3n2)cc1 | 6.44 µM
Cc1ccc2nc(NNC(=O)c3ccc(S(=O)(=O)N4CCc5ccccc5C4)cc3)sc2c1 | 3.91 µM
O=S(=O)(Nc1nc2ccccc2nc1Nc1ccc(N2CCOCC2)cc1)c1cc(Cl)ccc1Cl | 4.23 µM
CC(NC(=O)c1ccc([N+](=O)[O-])o1)C12CC3CC(CC(C3)C1)C2 (stereo not drawn) | 9.54 µM
Cc1cccc(-c2nc(C#N)c(NC3CCCCC3)o2)c1 | 19.4 µM

Structure (SMILES) | AC50
CCCc1[nH]c2ccc(C#N)cc2c1CCC | 4.14 µM
O=C(CSc1nc(-c2ccccc2)cc(C(F)(F)F)n1)c1cccc([N+](=O)[O-])c1 | 20.4 µM
Cc1cc(N2CCN(C)CC2)nc2ccc(NC(=S)N3CCN(c4ccc(F)cc4)CC3)cc12 | 5.94 µM
Cc1ccc(NC(=S)Nc2ccc(C(C)C)cc2)cc1S(=O)(=O)N1CCCCCC1 | 3.82 µM
COc1ccc(C(C)(C)C)cc1NC(=O)Nc1ccc2c(c1)OCO2 | 8.21 µM
Clc1ccc(-c2nnc(-c3ccccc3)c(-c3ccccc3)n2)cc1 | 3.69 µM
CC(C)(C)c1cc(C(=O)NNc2cc(C(F)(F)F)ccc2Cl)n(Cc2ccccc2)n1 | 4.18 µM
COc1cccc(-c2sc3ccc(OC)cc3c2C#CCC(C)O)c1 (stereo not drawn) | 5.4 µM
O=C(NNC(=O)c1cc(-c2ccc(Cl)c(Cl)c2)nc2ccccc12)Nc1ccccc1 | 6.4 µM
Cc1ccc(-c2cc(-c3ccccc3)nc(NN)n2)cc1 | 4.19 µM
Cc1c(O)cccc1C(=O)N[C@@H](CSc1ccccc1)[C@H](O)CN1C[C@H]2CCCC[C@H]2C[C@H]1C(=O)NC(C)(C)C | 7.33 µM
CCc1ccc(CCC(=O)Nc2ncc(Cc3ccccc3Cl)s2)o1 | 0.322 µM
COc1cc2sc(-c3ccccc3OC)c(-c3ccc(O)cc3)c2cc1OC | 5.22 µM
COc1ccc(-c2[nH]ncc2N=Nc2ccccc2)cc1 | 7.66 µM
Cc1ccc(NC(=O)/C=C/c2ccc3c(c2)OCO3)nc1 | 1.16 µM
NC(=O)CC(NC(=O)Cc1cccc2ccccc12)c1ccc(N2CCc3ccccc3C2)c([N+](=O)[O-])c1 (stereo not drawn) | 17.6 µM
CN1CCN(/N=C/c2ccc(N(c3ccccc3)c3ccccc3)cc2)CC1 | 6.89 µM
O=[N+]([O-])c1cccnc1N1CCC(c2cc(-c3ccc(Cl)cc3Cl)n[nH]2)CC1 | 4.6 µM
Cc1cccc(N2CCN(C(=O)c3cc4n(n3)C(C(F)(F)F)CC(c3ccco3)N4)CC2)c1C (stereo not drawn) | 9.71 µM
O=c1cc(-c2ccccc2)[nH]n1-c1nc2ccccc2s1 | 5.53 µM
Cc1ccccc1C(=O)Nc1ccc(-c2nc3ccc(C(=O)c4ccccc4)cc3[nH]2)cc1 | 1.8 µM
CC(Cc1ccccc1)NCCC(c1ccccc1)c1ccccc1 (stereo not drawn) | 8.73 µM
Oc1ccc(/C=N/Nc2nc(-c3ccc(Cl)cc3)cc(C(F)(F)F)n2)cc1 | 6.82 µM
O=S(=O)(Nc1nc2ccccc2nc1N1CCN(c2ccccc2F)CC1)c1ccc(Cl)cc1 | 5.8 µM
CCOc1cc(CNCCO)cc(Br)c1OCc1ccc(Cl)cc1Cl | 6.68 µM
COc1cccc(Nc2nc(-c3ccccc3)nc3ccccc23)c1 | 7.67 µM

Structure (SMILES) | AC50
CN1CCN(CCCNC(=O)c2ccc(/C=C3\Oc4ccccc4N(Cc4ccc(Cl)cc4)C3=O)cc2)CC1 | 3.31 µM
Cc1cccc(Nc2nc(-c3ccc(O)cc3O)cs2)n1 | 7.5 µM
C=CCn1c(SCC(=O)c2[nH]c(C)c(C(=O)OCC)c2C)nc2scc(-c3ccc(OC)c(OC)c3)c2c1=O | 3.99 µM
Cc1ccc(NS(=O)(=O)c2cc([N+](=O)[O-])ccc2NNC(=S)Nc2cc(C)ccc2C)c(C)c1 | 2.6 µM
Cc1ccc(C)c(N2CCN(C(=S)Nc3ccc4nc(N5CCN(C)CC5)cc(C)c4c3)CC2)c1 | 7.7 µM
Cc1cc(C)nc(NC(=NCCc2c[nH]c3ccccc23)NC(=O)Nc2ccc(Cl)cc2)n1 | > 19.5 µM (inactive)
CC(C)=CCCC1(C)C=Cc2c(ccc3c2[nH]c2cc(O)c(C)cc23)O1 (stereo not drawn) | 3.58 µM
Cc1csc(NC(=S)Nc2cccc(Cl)c2)n1 | 10.4 µM
O=c1/c(=C\c2cccc(O)c2)sc2nc(-c3ccccc3)c(-c3ccccc3)n12 | 6.21 µM
Nc1ccc(N=Nc2ccccc2)c2ccccc12 | 12.6 µM
Cc1ccc(S(=O)(=O)N2CCCCC2)cc1NC(=O)Cn1ncc(Cl)c(Cl)c1=O | 2.44 µM
Cc1ccc(NC(=O)C(=Cc2ccc(C(=O)O)cc2)C(=O)Nc2ccc(C)cc2C)c(C)c1 | 3.16 µM
COc1ccc(-c2cc(=O)n(-c3ccc([N+](=O)[O-])cc3)[nH]2)cc1 | 11.3 µM
Cn1c2ccccc2c(=O)c2cc(C#Cc3ccccn3)ccc21 | > 19.5 µM (inactive)
O=C(N/N=C/c1cc(Cl)cc([N+](=O)[O-])c1O)NC12CC3CC(CC(C3)C1)C2 | 4.59 µM
COc1cc(OC)cc(-c2sc3ccc(OC)cc3c2C#CC2(N)CCCCC2)c1 | 3.23 µM
COc1ccc(-c2nn(-c3ccccc3)cc2/C=C2/SC(=S)N(CCC(=O)O)C2=O)c(C)c1 | 8.18 µM
Cc1ccn2c(NCc3ccccc3)c(-c3cccc(SC4CCCCC4)c3)nc2c1 | 4.45 µM
COC(=O)c1c(-c2ccc(OC)cc2)oc2ccc(-c3cc(OC)c(OC)c(OC)c3)cc12 | 4.97 µM
Cc1cc(C)c(C(CC(=O)c2cccs2)C(C#N)C#N)c(C)c1 (stereo not drawn) | 5.9 µM
CC(C)[C@@H]1CC[C@@H](C)c2c(-c3ccccc3)n[nH]c21 | 6.38 µM
CCCOC(=O)C(=O)NNc1ccccc1 | 1.81 µM
CCN(CC)c1ccc2cc(S(=O)(=O)c3ccc(Cl)cc3)c(=O)oc2c1 | 4.98 µM
Cc1cc(C)c2nc(NNC(=O)c3cc(-c4cccs4)nc4ccccc34)sc2c1 | 2.95 µM
N#C/C(=C/c1cn(-c2ccccc2)nc1-c1cccc(OCc2ccccc2)c1)C(=O)NCCCn1ccnc1 | 6.25 µM
